In paper PMC9518286, “Design, synthesis, biological evaluation and molecular docking study of 2,4-diarylimidazoles and 2,4-bis(benzyloxy)-5-arylpyrimidines as novel HSP90 N-terminal inhibitors” (Journal of Enzyme Inhibition and Medicinal Chemistry, 2022):

Tests used:
HSP90α [1] = target: T1, HSP90α (Homo sapiens, UniProt P07900); test: biochemical; parameters: fluorescence polarisation competition with FITC-labelled geldanamycin on HSP90α N-terminal domain (BPS kit 50293); details: read-out: FP IC50
T1 construct: gene HSP90AA1; N-terminal domain
Description: The binding affinity for HSP90α was evaluated using a commercially available Hsp90α N-terminal domain assay kit (Catalogue: #50293, BPS Bioscience, CA, USA). According to the manufacturer’s instructions, 5x HSP90 assay buffer (5 μL), 40 mM dithiothreitol (5 μL), 2 mg/mL BSA (5 μL), and H2O (40 μL) were sequentially added to each well. After the addition of diluted FITC-labelled geldanamycin solution (100 nM, 5 μL), compounds at different concentrations (10 μM, 1.0 μM, 0.1 μM, 0.01 μM) were added. The reaction was initiated by the addition of 20 μL of Hsp90α (17 ng/μL). After 2 h of incubation with slow shaking at room temperature, the fluorescent polarisation was measured using Synergy H1 (BioTek Instruments, Inc.). The excitation and emission wavelengths were 485 nm and 530 nm, respectively. IC50 values were calculated based on the signal changes in the FP competition assay. The experiments were performed in triplicate. To further verify the binding of the synthesised compounds to the HSP90 N-terminus, the binding affinity of five typical compounds (16j, 16l, 16m, 22k, and 22l) was evaluated using an FP assay. The addition of compounds with HSP90 inhibitory capacity into the assay would compete with the fluorescence probe for binding into HSP90, resulting in a decrease in FP in comparison with the probe alone.

HSP90α [2] = target: T1, HSP90α; test: fluorescence polarisation competition with FITC-geldanamycin (BPS kit #[…]); assay type: binding

| SMILES | IC50 (HSP90α [1]) [nM] | IC50 (HSP90α [2]) [nM] |
| --- | --- | --- |
| Cc1ccc(-c2cn(Cc3ccccc3)c(-c3ccc(Cl)cc3)n2)cc1 [16j, 1-Benzyl-2–(4-chlorophenyl)-4-(p-tolyl)-1H-imidazole] | 610 ± 30 |  |
| Clc1ccc(-c2cn(Cc3ccccc3)c(-c3ccc(Cl)cc3)n2)cc1 [16l, 1-Benzyl-2,4-bis(4-chlorophenyl)-1H-imidazole] | 570 ± 60 |  |
| Clc1ccc(-c2nc(-c3cccc(Cl)c3)cn2Cc2ccccc2)cc1 [16m, 1-Benzyl-4–(3-chlorophenyl)-2–(4-chlorophenyl)-1H-imidazole] | 620 ± 110 |  |

Now from value to compound:

| IC50 (HSP90α [1]) [nM] | IC50 (HSP90α [2]) [nM] | SMILES |
| --- | --- | --- |
|  | 210 ± 30 | Oc1ccc(-c2cnc(OCc3ccccc3)nc2OCc2ccccc2)cc1 [22k, 4–(2,4-Bis(benzyloxy)pyrimidin-5-yl)phenol] |
| 580 ± 110 |  | Oc1cccc(-c2cnc(OCc3ccccc3)nc2OCc2ccccc2)c1 [22l, 3–(2,4-Bis(benzyloxy)pyrimidin-5-yl)phenol] |
